{"source": "patent US20080269161A1", "about": "“Compositions and Methods Relating to Mitochondrial Hyperpolarization in Neurological Disease” (priority 2005, published 2008)", "key": {"[1]": {"test_system": "mitochondrial membrane potential of rat cortical neurons", "assay_type": "cell-based", "conditions": "neurotoxin alone", "procedure": "Curve fits are non-formulaic software interpolations of the data points.\nChanges in mitochondrial function that could be associated with the increased vesicular activity were evaluated. Mitochondria generate the energy for synaptic transmission in the form of ATP, and as a byproduct of this oxidative phosphorylation, they are also one of the primary producers of intracellular ROS. Two key mitochondrial parameters were examined in response to Tat and PAF: 1) mitochondrial membrane potential (ΔΨm) [as assessed by mitochondrial uptake of the lipophilic cationic dyes tetramethylrhodamine ethyl or methyl ester (TMRE or TMRM respectively)], and 2) ATP production (as measured by luciferase assay). The electronegative mitochondrial membrane potential provides the driving force for calcium buffering and ATP production by the mitochondria, and as such, ΔΨm is frequently used as an indicator of mitochondrial health and energetic capacity. Moreover, fluctuations in ΔΨm can trigger mitochondrial release of pro-apoptotic factors, an event most frequently associated with a loss of ΔΨm.\nMonitoring alterations in ΔΨm with TMRM: In the relevant methods described herein, changes in mitochondrial membrane potential (ΔΨm) in response to Tat or PAF treatment is assessed by TMRM, which must equilibrate across the plasma membrane before entering the mitochondria; and in whole cell applications dye concentration in the mitochondria is dependent on both plasma membrane potential (ΔΨp) and AΨm. At sufficiently low dye concentrations (TMRM =1 nM, i.e. high cell/dye ratio) and normal membrane potentials, ≧95% of the dye is in the mitochondria, and ≦1% in the media, which results in an approximately 100× sensitivity of the dye to ΔΨm over ΔΨp, given equivalent changes in plasma or mitochondrial membrane potential [Rottenberg, H. and S. Wu, Biochim Biophys Acta, 1998. 1404(3): p. 393-40].\nFor these methods, primary rodent neurons are treated with reagent under normal culture conditions for the indicated time period, followed by removal of the media, 1×2 minute wash in pre-warmed 37° C. HBSS plus 10 mM glucose and 10 mM HEPES (HBSS+), then incubation in HBSS+ with 1 nM TMRE/M. Following equilibration of the dye for 20 minutes to ensure distribution across the mitochondrial membrane, the cells are imaged while remaining in the 1 nM TMRE/M solution, as is necessary for a continued dye equilibrium state. Random field images are taken using an Olympus IX-70 microscope and 40× objective (fluorescent excitation: 545; emission: 610) and Apogee KX32ME CCD camera, and the mean relative fluorescent unit (RFU) value of the neuronal soma and processes (excluding mitochondria deficient regions) is quantified using Scanalytics IPLab software."}, "hippocampal neurons": {"test_system": "hippocampal neurons", "experiment": "Dendrite beading and spine loss in hippocampal neurons in vitro", "assay_type": "cell-based, rat", "conditions": "cPAF 130 nM, 60 hours", "source_text": "(A) cPAF causes dendrite beading and loss of dendritic spines. (A′) Low-magnification images show minimal changes in dendrite morphology and total spine number in control cultures (left). In cPAF-treated cultures (right), dendrite beading (red arrows) is accompanied by spine loss and sprouting of filopodia (green arrowheads) but gross aspects of dendrite structure are preserved. (B) No cells developed dendritic swellings in control cultures, while 55±3% of cPAF-exposed cells beaded. (C) 43±5% of dendritic spines were lost during cPAF exposure, while total spine number was maintained in control cultures.\nAn additional pathologic consequence of exposure to HIV-1 neurotoxins is an increase in oxidized cellular phospholipids that can bind to and activate the PAF-R [Marathe, G. K., et al., Vascul Pharmacol, 2002. 38(4): p. 193-200]. Both energetic stress and PAF-R signaling have the potential to impair post-synaptic neurotransmission. Thus, a morphologic correlate of dendrite damage in HAD was identified, which is activity-induced dendritic swelling or “beading” in the presence of the HIV neurotoxin cPAF. […]\n(3) Primary rat hippocampal neurons (HN). […] Dissociated cells are counted by trypan blue viability assay and plated in cell culture plates at 0.5-0.6×10^5 cells/cm^2, on poly-D-lysine-coated cell culture plastic or sterile glass coverslips. […]"}}, "note": "Entries after “also recorded” stand apart in the source; their conditions may differ."}
{"smiles": "CCCCCCCCCCCCCCCCOC[C@H](COP(=O)([O-])OCC[N+](C)(C)C)OC(=O)NC", "note": "[PAF, carbamyl-platelet-activating factor]", "values": [{"measurement": "effect on ΔΨm", "setting": "[1]", "value": "dose dependent increases; also recorded: dose-dependent rise"}, {"measurement": "cells with dendrite beading", "setting": "hippocampal neurons", "value": "55±3", "unit": "%"}, {"measurement": "dendritic spines lost", "setting": "hippocampal neurons", "value": "43±5", "unit": "%"}]}
